Laboratory results published in patent publication US20260176270A1 (Exelixis, Inc., priority 2022, published 2026).
pIC50: −log10 of the molar value. Where two headings read alike, the source gives them in different places.

Assays:
[1] = test system: phosphorylation of CDK1 at Thr14 in HCC1806 cells; test: Cell lysate AlphaLISA assay measuring inhibition of phosphorylation of CDK1 Thr14; assay type: cell-based; settings: read-out: Cellular IC50
Protocol: (§1) Biochemical IC50 values were determined via ADP-Glo™ assay. Cellular IC50 values were determined via AlphaLISA assay.
Cell lysate AlphaLISA® assay measuring inhibition of phosphorylation of CDK1 Thr14. Inhibition of phosphorylation of CDK1 at Thr14 was determined using AlphaLISA® SureFire® Ultra™ Kit from Perkin Elmer (ALSU-PCDK1-A10K). HCC1806 cells were seeded at 2K cells per well (50 μl/well) in 384-well plates (Corning 3570) and stored overnight at 37° C. and 5% CO2. The following day, the compounds dissolved in DMSO were introduced to the cells and incubated for 4 hours at 37° C. and 5% CO2. The cells were then washed with PBS using Blue®Washer and 10 μl of lysis buffer containing protease inhibitor was added. The plate was placed on an orbital shaker (at 4° C.) for 30 minutes and stored overnight at −80° C. for complete lysing. The next day, the plates were thawed at room temperature for at least 30 min. Reagents were prepared in a dimmed light setting (<100 lumens). The assay was run by first adding 5 μl of the acceptor mix (reaction buffer 1: reaction buffer 2: activation buffer: acceptor beads 47:47:4:2), covering the plate with foil, shaking for 2 minutes and incubating at RT for 60 minutes. The donor mix (dilution buffer: donor beads 47:3) was then added at 5 μl per well, placed on the shaker for 2 minutes and incubated at RT for 60 minutes before reading the plates on a PHERAstar® plate reader. The results were normalized to DMSO (0% Inhibition) and 3 μM of reference compound.

[2] = target: T1, PKMYT1 (Homo sapiens, UniProt Q99640); test: ADP-Glo PKMYT1 ATP-depletion assay; settings: 50 nM PKMYT1, 13.3 nM CDK1, read-out: Biochemical IC50
T1 construct: PKMYT1 (93 kD, full length, N-terminal GST tag from Signal Chem); GST (N); purchased Signal Chem
T1 sequence (Q99640 1-499): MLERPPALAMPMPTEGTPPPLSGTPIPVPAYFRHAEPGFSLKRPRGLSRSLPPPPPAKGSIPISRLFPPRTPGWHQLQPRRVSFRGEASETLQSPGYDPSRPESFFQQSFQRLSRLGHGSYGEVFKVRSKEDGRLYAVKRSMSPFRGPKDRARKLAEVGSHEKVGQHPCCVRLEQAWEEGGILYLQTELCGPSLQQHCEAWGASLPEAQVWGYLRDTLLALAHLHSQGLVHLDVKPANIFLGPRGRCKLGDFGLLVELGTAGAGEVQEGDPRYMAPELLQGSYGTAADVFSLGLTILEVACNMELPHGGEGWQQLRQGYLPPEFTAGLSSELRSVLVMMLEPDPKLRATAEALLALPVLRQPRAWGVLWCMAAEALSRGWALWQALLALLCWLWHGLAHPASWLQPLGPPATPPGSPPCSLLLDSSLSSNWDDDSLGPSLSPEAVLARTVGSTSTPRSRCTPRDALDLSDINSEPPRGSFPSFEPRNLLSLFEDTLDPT
Protocol: as §1
ADP-Glo™ PKMYT1 ATP-depletion assay. The activity of PKMYT1 is measured using a luciferase-luciferin based ATP detection reaction to quantify ATP depletion resulting from kinase-catalyzed phosphoryl transfer to CDK1 or autophosphorylation of PKMYT1. The ADP generated as a byproduct of the reaction is converted to ATP and used to drive a luciferase reaction. Test compounds were dissolved in DMSO and dispensed into Corning 3824 384-well plates prior to the experiment such that the final DMSO concentration was <1%. To the compounds was added 3 μL of PKMYT1 (93 kD, full length, N-terminal GST tag from Signal Chem). The reaction was started by the addition of 2 μL of CDK1 (58 kDa, full length, N-terminal GST tag from Signal Chem) and ATP in assay buffer (50 mM Hepes, 40 mM NaCl, 10 mM MgCl2, 1 mM DTT, 0.1 mg/mL BSA, 2.5 mM MnCl2). Final assay concentrations were 50 nM PKMYT1, 13.3 nM CDK1, and 88 µM ATP. Plates were centrifuged for 1 minute at 1000 RPM and incubated at RT for 120 minutes. After the incubation period, ADP-Glo™ reagent was added and the plates were incubated for another 40 minutes before finally adding the kinase detection reagent. 30 minutes after the addition, plates were placed on a PHERAstar® plate reader and read using the Luminescence Protocol, integration time at 0.5 seconds.

SMILES | pIC50 ([1]; 4 hours) | pIC50 [2] | pIC50 ([1]; Homo sapiens, HCC1806, 4 h)
Cc1c(O)cccc1-c1c(N)c(C(N)=O)nc2cc(C(F)(F)F)ccc12 (atropisomer, axis not shown) [Compound 147] | 5.30 to 6.00 | 5.30 to 6.00 | 
Cc1c(O)cccc1-c1c(N)c(C(N)=O)nc2cc(C(F)(F)F)ccc12 (atropisomer, axis not shown) [Compound 148] | ≤ 5.30 | ≤ 5.30 | 
Cc1ccc2nc(C(N)=O)c(N)c(-c3cccc(O)c3C)c2c1 (atropisomer, axis not shown) [Compound 149] |  | 6.30 to 7.30 | 
Cc1ccc2nc(C(N)=O)c(N)c(-c3cccc(O)c3C)c2c1 (atropisomer, axis not shown) [Compound 150] |  | ≤ 5.30 | 
NC(=O)c1cc2nccnc2c(-c2cc(O)ccc2Cl)c1N (atropisomer, axis not shown) [Compound 151] |  | 6.30 to 7.30 | 
NC(=O)c1cc2nccnc2c(-c2cc(O)ccc2Cl)c1N (atropisomer, axis not shown) [Compound 152] |  | ≤ 5.30 | 
NC(=O)c1cc2nccnc2c(-c2cc(O)cnc2Cl)c1N (atropisomer, axis not shown) [Compound 163] | ≤ 5.30 | 5.30 to 6.00 | 
NC(=O)c1cc2nccnc2c(-c2cc(O)cnc2Cl)c1N (atropisomer, axis not shown) [Compound 164] | ≤ 5.30 | ≤ 5.30 | 
Cc1ccc(O)c(C)c1-c1cc(C(N)=O)cc2nccnc12 (atropisomer, axis not shown) [Compound 165] |  | ≤ 5.30 | 
Cc1c(O)cccc1-c1c(N)c(C(N)=O)nc2cc(C(F)(F)F)cnc12 (atropisomer, axis not shown) [Compound 166] | 6.30 to 7.30 | > 7.30 | 
Cc1c(O)cccc1-c1c(N)c(C(N)=O)nc2cc(C(F)(F)F)cnc12 (atropisomer, axis not shown) [Compound 167] | ≤ 5.30 | 5.30 to 6.00 | 
Cc1cccc(-c2c(N)c(C(N)=O)cc3cc(Cl)cnc23)c1C (atropisomer, axis not shown) [Compound 180] |  | 6.30 to 7.30 | 5.30 to 6.00
COc1cncc(-c2c(N)c(C(N)=O)nc3cccnc23)c1C (atropisomer, axis not shown) [Compound 185] | ≤ 5.30 | ≤ 5.30 | 
Cc1cnc2cc(C(N)=O)c(N)c(-c3c(C)ccc(O)c3C)c2n1 (atropisomer, axis not shown) [Compound 188] | 6.30 to 7.30 | > 7.30 | 
Cc1c(O)cccc1-c1c(N)c(C(N)=O)nc2nccnc12 (atropisomer, axis not shown) [Compound 194] |  | > 7.30 | 
Cc1c(O)cccc1-c1c(N)c(C(N)=O)nc2nccnc12 (atropisomer, axis not shown) [Compound 195] |  | 6.00 to 6.30 | 
Cc1cnc2c(-c3c(C)ccc(O)c3C)c(N)c(C(N)=O)cc2c1 (atropisomer, axis not shown) [Compound 213] |  | > 7.30 | 6.30 to 7.30
Cc1ccc(O)c(C)c1-c1c(N)c(C(N)=O)cc2cc(Cl)cnc12 (atropisomer, axis not shown) [Compound 235] | ≤ 5.30 | 5.30 to 6.00 | 
Cc1c(O)cccc1-c1c(N)c(C(N)=O)nc2cccc(C#N)c12 (atropisomer, axis not shown) [Compound 242] | > 7.30 | > 7.30 | 
Cc1c(O)cccc1-c1c(N)c(C(N)=O)nc2cccc(C#N)c12 (atropisomer, axis not shown) [Compound 243] | 6.30 to 7.30 | 6.30 to 7.30 | 
NC(=O)c1nc2cccnc2c(-c2c(F)ccc3[nH]ncc23)c1N (atropisomer, axis not shown) [Compound 244] | 6.00 to 6.30 | 6.30 to 7.30 | 

Second part, the compound after the results:

pIC50 ([1]; 4 hours) | pIC50 [2] | pIC50 ([1]; Homo sapiens, HCC1806, 4 h) | SMILES
5.30 to 6.00 | 6.30 to 7.30 |  | Cc1c(O)cccc1-c1c(N)c(C(N)=O)cc2nc(C(F)(F)F)c(O)nc12 (atropisomer, axis not shown) [Compound 135]
≤ 5.30 | ≤ 5.30 |  | Cc1c(O)cccc1-c1c(N)c(C(N)=O)cc2nc(C(F)(F)F)c(O)nc12 (atropisomer, axis not shown) [Compound 136]
 | ≤ 5.30 |  | Cc1ccc(O)c(C)c1-c1c(N)c(C(N)=O)cc2nc(C)c(C)nc12 (atropisomer, axis not shown) [Compound 140]
 | > 7.30 |  | Cc1ccc(O)c(C)c1-c1c(N)c(C(N)=O)cc2nc(C)c(C)nc12 (atropisomer, axis not shown) [Compound 141]
6.30 to 7.30 | > 7.30 |  | Cc1cnc2cc(C(N)=O)c(N)c(-c3cccc(O)c3C)c2n1 (atropisomer, axis not shown) [Compound 168]
6.00 to 6.30 | 6.30 to 7.30 |  | Cc1cnc2cc(C(N)=O)c(N)c(-c3cccc(O)c3C)c2n1 (atropisomer, axis not shown) [Compound 169]
≤ 5.30 | ≤ 5.30 |  | Cc1c(O)cccc1-c1c(N)c(C(N)=O)cc2nc(C)c(=O)n(C)c12 (atropisomer, axis not shown) [Compound 170]
5.30 to 6.00 | 6.30 to 7.30 |  | Cc1c(O)cccc1-c1c(N)c(C(N)=O)cc2nc(C)c(=O)n(C)c12 (atropisomer, axis not shown) [Compound 171]
6.30 to 7.30 | > 7.30 |  | COc1ccc2nc(C(N)=O)c(N)c(-c3cccc(O)c3C)c2n1 (atropisomer, axis not shown) [Compound 174]
≤ 5.30 | ≤ 5.30 |  | COc1ccc2nc(C(N)=O)c(N)c(-c3cccc(O)c3C)c2n1 (atropisomer, axis not shown) [Compound 175]
6.30 to 7.30 | > 7.30 |  | Cc1c(O)cccc1-c1c(N)c(C(N)=O)cc2cc(Cl)cnc12 (atropisomer, axis not shown) [Compound 179]
6.30 to 7.30 | > 7.30 |  | COc1nc2cc(C(N)=O)c(N)c(-c3cccc(O)c3C)c2nc1C (atropisomer, axis not shown) [Compound 187]
≤ 5.30 | ≤ 5.30 |  | Cc1cnc2cc(C(N)=O)c(N)c(-c3c(C)ccc(O)c3C)c2n1 (atropisomer, axis not shown) [Compound 192]
≤ 5.30 | ≤ 5.30 |  | COc1nc2cc(C(N)=O)c(N)c(-c3cccc(O)c3C)c2nc1C (atropisomer, axis not shown) [Compound 193]
≤ 5.30 | ≤ 5.30 |  | Cc1cnc2c(-c3cccc(O)c3C)c(N)c(C(N)=O)cc2n1 (atropisomer, axis not shown) [Compound 201]
6.30 to 7.30 | > 7.30 |  | Cc1cnc2c(-c3cccc(O)c3C)c(N)c(C(N)=O)cc2n1 (atropisomer, axis not shown) [Compound 209]
6.00 to 6.30 | > 7.30 |  | COc1nc2c(-c3cccc(O)c3C)c(N)c(C(N)=O)cc2nc1C (atropisomer, axis not shown) [Compound 218]
> 7.30 | > 7.30 |  | Cc1cnc2c(-c3c(C)ccc(O)c3C)c(N)c(C(N)=O)cc2n1 (atropisomer, axis not shown) [Compound 222]
≤ 5.30 | ≤ 5.30 |  | Cc1cnc2c(-c3c(C)ccc(O)c3C)c(N)c(C(N)=O)cc2n1 (atropisomer, axis not shown) [Compound 223]
≤ 5.30 | 5.30 to 6.00 |  | COc1nc2c(-c3cccc(O)c3C)c(N)c(C(N)=O)cc2nc1C (atropisomer, axis not shown) [Compound 224]
